Molecular target: T1, KRas G12C (Homo sapiens, UniProt P01116, G12C)
T1 construct: NCI-H358 cells (ATCC CRL-5807) express KRas G12C
Assay: Inhibition of KRas G12C-dependent cell growth: Phospho-ERK in NCI-H358 cells
Type: cell-based
Details: NCI-H358 cells expressing KRas G12C; Phospho-ERK (Thr202/Tyr204) normalized to GAPDH; 3 hours compound; 4 parameter fit
Outline: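 Phospho-ERK read-out in KRas G12C-expressing NCI-H358 cells after 3 h compound treatment (final DMSO 0.5%), by in-cell infrared immunodetection. Signal normalized to GAPDH and to DMSO controls. 4-parameter curve fit gave IC50.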

T1 sequence (P01116 1-188 isoform P01116-2 G12C): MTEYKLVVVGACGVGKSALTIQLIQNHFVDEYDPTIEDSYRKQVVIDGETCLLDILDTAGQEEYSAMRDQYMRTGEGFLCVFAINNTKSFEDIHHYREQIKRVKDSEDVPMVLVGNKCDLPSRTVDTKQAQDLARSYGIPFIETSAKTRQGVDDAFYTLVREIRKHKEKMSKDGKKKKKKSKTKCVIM

IC50 [nM] | SMILES
519 | C=CC(=O)N1CC2(CCN(c3nc(OC[C@@H]4CCCN4C)nc4c(F)c(-c5cccc6cccc(Cl)c56)ncc34)CC2)C1 [Example 85]
14 | C=C(F)C(=O)N1CCN(c2nc(OC[C@@H]3CCCN3C)nc3c(F)c(-c4cccc5ccc(F)c(C)c45)ncc23)C[C@@H]1CC#N [Example 86]
4380 | C=C(F)C(=O)N1CCN(c2nc(OC[C@@H]3CCCN3C)nc3c(F)c(-c4ccccc4F)ncc23)C[C@@H]1CC#N [Example 87]
77 | COC/C=C/C(=O)N1CCN(c2nc(OC[C@@H]3CCCN3C)nc3c(F)c(-c4cncc5cccc(Cl)c45)ncc23)C[C@@H]1CC#N [Example 88]
26 | CN1CCC[C@H]1COc1nc(N2CCN(C(=O)/C=C/CF)[C@@H](CC#N)C2)c2cnc(-c3cncc4cccc(Cl)c34)c(F)c2n1 [Example 90]
29 | C=C(F)C(=O)N1CCN(c2nc(N3CC(N(C)C)C3)nc3c(F)c(-c4cccc5cccc(Cl)c45)ncc23)C[C@@H]1CC#N [Example 91]
11 | C=C(F)C(=O)N1CCN(c2nc(OC[C@@H]3CCCN3C)nc3c(F)c(-c4cccc5ccc(F)c(Cl)c45)ncc23)C[C@@H]1CC#N [Example 92]
366 | C=CC(=O)N1CCN(c2nc(OC[C@@H]3CCCN3C)nc3c(F)c(-c4cncc5cccc(Cl)c45)ncc23)CC1 [Example 93]
14 | C=C(F)C(=O)N1CCN(c2nc(OC[C@@H]3CCCN3C)nc3c(F)c(-c4cc(O)cc5ccccc45)ncc23)C[C@@H]1CC#N [Example 95]
200 | C=CC(=O)N1CCN(c2nc(OC[C@@H]3CCCN3C)nc3c(F)c(-c4cncc5cccc(Cl)c45)ncc23)[C@@H](C)C1 [Example 96]
2520 | C=C(F)C(=O)N1CCN(c2nc(NC3CCN(C4CC4)CC3)nc3c(F)c(-c4cccc5cccc(Cl)c45)ncc23)C[C@@H]1CC#N [Example 97]
10000 | C=CC(=O)N1CC2CC1CN2c1nc(OC[C@@H]2CCCN2C)nc2c(F)c(-c3cncc4cccc(Cl)c34)ncc12 (some centres unmarked) [Example 98]
444 | C=C(F)C(=O)N1CCN(c2nc(OC[C@@H]3CCCN3C)nc3c(F)c(-c4c(C)ccc5cnn(C)c45)ncc23)C[C@@H]1CC#N [Example 99]
10000 | C=CC(=O)N1CCN(c2nc(OC[C@@H]3CCCN3C)nc3c(F)c(-c4ccccc4F)ncc23)[C@@H](C)C1 [Example 100]
43 | C=C(F)C(=O)N1CCN(c2nc(OCC34CCCN3CCC4)nc3c(F)c(-c4cccc(F)c4C(F)(F)F)ncc23)C[C@@H]1CC#N [Example 101]
12 | C=CC(=O)N1CCN(c2nc(OCC34CCCN3CCC4)nc3c(F)c(-c4cccc5ccc(F)c(Cl)c45)ncc23)CC1 [Example 102]
10000 | C=CC(=O)N1CCN(c2nc(OC[C@@H]3CCCN3C)nc3c(F)c(-c4nc(N)ccc4Cl)ncc23)CC1 [Example 103]
699 | C=C(F)C(=O)N1CCN(c2nc(OCCC(F)(F)F)nc3c(F)c(-c4cccc5ccc(F)c(Cl)c45)ncc23)C[C@@H]1CC#N [Example 104]
10000 | C=CC(=O)N1CC2CN(c3nc(OC[C@@H]4CCCN4C)nc4c(F)c(-c5cncc6cccc(Cl)c56)ncc34)CC2C1 (some centres unmarked) [Example 105]
1540 | C=C(F)C(=O)N1CCN(c2ncnc3c(F)c(-c4cccc5cccc(Cl)c45)ncc23)C[C@@H]1CC#N [Example 106]

IC50 [nM] | SMILES
156 | C=C(F)C(=O)N1CCN(c2nc(OC[C@@H]3CCCN3C)nc3c(F)c(-c4nc(N)cc5ccccc45)ncc23)C[C@@H]1CC#N [Example 107]
37 | C=CC(=O)N1CCN(c2ncnc3c(F)c(-c4cccc5cccc(Cl)c45)ncc23)C[C@@H]1CC#N [Example 108]
21 | C=CC(=O)N1CCN(c2ncnc3c(F)c(-c4cccc5ccc(F)c(Cl)c45)ncc23)C[C@@H]1CC#N [Example 109]
725 | COC/C=C/C(=O)N1CCN(c2ncnc3c(F)c(-c4cccc5ccc(F)c(Cl)c45)ncc23)C[C@@H]1CC#N [Example 110]
3920 | C=C(F)C(=O)N1CCN(c2ncnc3c(F)c(-c4cccc5cccc(C)c45)ncc23)C[C@@H]1CC#N [Example 111]
218 | N#CC[C@H]1CN(c2ncnc3c(F)c(-c4cccc5ccc(F)c(Cl)c45)ncc23)CCN1C(=O)/C=C/CF [Example 112]
13 | C=C(F)C(=O)N1CCN(c2nc(OC[C@@H]3C[C@@H](OC)CN3C)nc3c(F)c(-c4cccc5ccc(F)c(Cl)c45)ncc23)C[C@@H]1CC#N [Example 113]
2 | C=C(F)C(=O)N1CCN(c2nc(OCC34CCCN3CCC4)nc3c(F)c(-c4cccc5ccc(F)c(Cl)c45)ncc23)C[C@@H]1CC#N [Example 114]
76 | N#CC[C@H]1CN(c2ncnc3c(F)c(-c4cccc5ccc(F)c(Cl)c45)ncc23)CCN1C(=O)/C=C/C(F)F [Example 115]
31 | C=C(F)C(=O)N1CCN(c2nc(OC[C@@H]3C[C@@H](F)CN3C(C)C)nc3c(F)c(-c4cccc5ccc(F)c(Cl)c45)ncc23)C[C@@H]1CC#N [Example 116]
18 | C=C(F)C(=O)N1CCN(c2nc(OC[C@@H]3C[C@@H](OC)CN3C(C)C)nc3c(F)c(-c4cccc5ccc(F)c(Cl)c45)ncc23)C[C@@H]1CC#N [Example 117]
329 | C=C(F)C(=O)N1CCN(c2nc(OC[C@@H]3CC(F)(F)CN3C(C)C)nc3c(F)c(-c4cccc5ccc(F)c(Cl)c45)ncc23)C[C@@H]1CC#N [Example 118]
39 | C=CC(=O)N1CCN(c2nc(OC[C@@H]3CCCN3C)nc3c(F)c(-c4cccc5ccc(F)c(Cl)c45)ncc23)[C@@H](C)C1 [Example 119]
976 | C=C(F)C(=O)N1CCN(c2nc(OCCNS(C)(=O)=O)nc3c(F)c(-c4cccc5ccc(F)c(Cl)c45)ncc23)C[C@@H]1CC#N [Example 120]
63 | C=C(F)C(=O)N1CCN(c2nc(OC[C@@H]3CCCN3C(C)C)nc3c(F)c(-c4cccc5ccc(F)c(Cl)c45)ncc23)C[C@@H]1CC#N [Example 121]
32 | C=CC(=O)N1CCN(c2nc(C)nc3c(F)c(-c4cccc5ccc(F)c(Cl)c45)ncc23)C[C@@H]1CC#N [Example 122]
3960 | C=CC(=O)N1CCN(c2ncnc3c(F)c(-c4cccc5ccc(F)c(Cl)c45)ncc23)[C@@H](C)C1 [Example 123]
1770 | C=C(F)C(=O)N1CCN(c2nc(OCc3ccn[nH]3)nc3c(F)c(-c4cccc5ccc(F)c(Cl)c45)ncc23)C[C@@H]1CC#N [Example 124]
42 | C=C(F)C(=O)N1CCN(c2nc(OC[C@@H]3CCCN3C(C)C)nc3c(F)c(-c4cccc5cccc(Cl)c45)ncc23)C[C@@H]1CC#N [Example 125]
15 | C=C(F)C(=O)N1CCN(c2nc(OC[C@@H]3C[C@@H](F)CN3C)nc3c(F)c(-c4cccc5ccc(F)c(Cl)c45)ncc23)C[C@@H]1CC#N [Example 126]

IC50 [nM] | SMILES
243 | C=C(F)C(=O)N1CCN(c2nc(OCC3CN(C)C3)nc3c(F)c(-c4cccc5ccc(F)c(Cl)c45)ncc23)C[C@@H]1CC#N [Example 127]
15 | C=C(F)C(=O)N1CCN(c2nc(OC[C@@H]3CCCN3CC)nc3c(F)c(-c4cccc5ccc(F)c(Cl)c45)ncc23)C[C@@H]1CC#N [Example 128]
73 | C=C(F)C(=O)N1CCN(c2nc(OCCCN3C[C@@H]4C[C@H]3CO4)nc3c(F)c(-c4cccc5ccc(F)c(Cl)c45)ncc23)C[C@@H]1CC#N [Example 129]
26 | C=C(F)C(=O)N1CCN(c2nc(OCC3CCN3C(C)C)nc3c(F)c(-c4cccc5ccc(F)c(Cl)c45)ncc23)C[C@@H]1CC#N (some centres unmarked) [Example 130]
10000 | C=CC(=O)N1C2CCC1CN(c1ncnc3c(F)c(-c4cccc5ccc(F)c(Cl)c45)ncc13)C2 [Example 131]
145 | C=C(F)C(=O)N1CCN(c2nc(OCCc3nccn3C)nc3c(F)c(-c4cccc5ccc(F)c(Cl)c45)ncc23)C[C@@H]1CC#N [Example 132]
10000 | C=CC(=O)N1CCN(c2ncnc3c(F)c(-c4cccc5ccc(F)c(Cl)c45)ncc23)[C@H](C)C1 [Example 133]
10000 | C=CC(=O)N1CCN(c2ncnc3c(F)c(-c4cccc5ccc(F)c(Cl)c45)ncc23)CC1 [Example 134]
6050 | C=CC(=O)N1CCN(c2ncnc3c(F)c(-c4cccc5ccc(F)c(Cl)c45)ncc23)CC1C#N (centres unmarked) [Example 135]
92 | C=CC(=O)N1CCN(c2nc(OC)nc3c(F)c(-c4cccc5ccc(F)c(Cl)c45)ncc23)C[C@@H]1CC#N [Example 136]
3350 | C=CC(=O)N1CCN(c2ncnc3c(F)c(-c4cccc5cccc(Cl)c45)ncc23)CC1 [Example 137]
7170 | C=CC(=O)N1CCC2(C1)CN(c1ncnc3c(F)c(-c4cccc5ccc(F)c(Cl)c45)ncc13)C2 [Example 138]
37 | C=C(F)C(=O)N1CCN(c2nc(OCC3CCN3CC)nc3c(F)c(-c4cccc5ccc(F)c(Cl)c45)ncc23)C[C@@H]1CC#N (some centres unmarked) [Example 139]
14 | C=C(F)C(=O)N1CCN(c2nc(OC[C@@H]3CCCN3C3CCC3)nc3c(F)c(-c4cccc5ccc(F)c(Cl)c45)ncc23)C[C@@H]1CC#N [Example 140]
50 | C=CC(=O)N1CCN(c2nc(OC[C@@H]3CCCN3C)nc3c(F)c(-c4cccc5ccc(F)c(Cl)c45)ncc23)C[C@@H]1C [Example 141]
1250 | C=C(F)C(=O)N1CCN(c2nc(OCc3cc4ncccc4[nH]3)nc3c(F)c(-c4cccc5ccc(F)c(Cl)c45)ncc23)C[C@@H]1CC#N [Example 142]
35 | C=C(F)C(=O)N1CCN(c2nc(OCC34CCCN3CCOC4)nc3c(F)c(-c4cccc5ccc(F)c(Cl)c45)ncc23)C[C@@H]1CC#N (some centres unmarked) [Example 144]
2 | C=C(F)C(=O)N1CCN(c2nc(OCC34CCCN3C[C@H](F)C4)nc3c(F)c(-c4cccc5ccc(F)c(Cl)c45)ncc23)C[C@@H]1CC#N (some centres unmarked) [Example 145]
10000 | C=CC(=O)N1[C@@H](C)CN(c2ncnc3c(F)c(-c4cccc5ccc(F)c(Cl)c45)ncc23)C[C@@H]1C [Example 146]

Source: patent publication US11548888B2, “KRas G12C inhibitors” (Mirati Therapeutics, Inc., priority 2019, dated 2023)
